One series can be described thus: in vitro. Particulars: human, Picorana CC50.

≈ marks a conversion by molar mass, not a printed value.

`CC(C)c1ccc2c(c1)OC1(O)c3cc(F)c(F)cc3C(=O)C21O` (stereo not drawn) [Example 42, 2,3-Difluoro-4b,9b-dihydroxy-7-isopropyl-4bH-benzo[d]indeno[1,2-b]furan-10(9bH)-one] registered a melting point of 134 to 136 °C. The compound also showed a CC50 in “in vitro” of 8.94 µg/mL (≈ 26.9 µM).
Compound `CCCCCCCCCCCCCCCc1ccc2c(c1)C1(O)C(=O)c3ccccc3C1(O)O2` (stereo not drawn) [Example 27, 4b,9b-Dihydroxy-8-pentadecyl-4bH-benzo[d]indeno[1,2-b]furan-10(9bH)-one] had a melting point of 105 to 110 °C. Moreover, in the series “in vitro”, the CC50 was determined as 43.9 µg/mL (≈ 94.5 µM).
Consider `CC(C)c1ccc2c(c1)O[C@@]1(O)c3cc4ccccc4cc3C(=O)[C@@]21O` [Example 44, 4b,9b-Dihydroxy-7-isopropyl-1H-cyclopenta[b]naphthalene o[1,2-b]furan-10(9bH)-one], for which the melting point lay in the range of 186 to 189 °C. This compound also came in with a CC50 in “in vitro” of 6.25 µg/mL (≈ 18 µM).
Take `COc1cc2c(cc1OC)[C@]1(O)Oc3cc(C(C)C)ccc3[C@]1(O)C2=O` [Example 81, 4b,9b-Dihydroxy-7-isopropyl-2,3-dimethoxy-4bH-benzo[d]indeno[1,2-b]furan-10(9bH)-one]: the melting point was 127 to 129 °C. In the series “in vitro”, this compound yielded a CC50 of 8.61 µg/mL (≈ 24.2 µM).
The compound `CC(C)c1ccc2c(c1)OC1(OCCO)c3ccccc3C(=O)C21O` (stereo not drawn) [Example 79, 9b-Hydroxy-4b-(2-hydroxyethoxy)-7-isopropyl-4bH-benzo[d]indeno[1,2-b]furan-10(9bH)-one] showed a melting point of 100 to 105 °C. In “in vitro”, this compound returned a CC50 of 10.4 µg/mL (≈ 30.6 µM).
Compound `O=C1c2ccccc2C2(O)Oc3c(-c4ccccc4)cccc3C12O` (stereo not drawn) [Example 13, 4b,9b-Dihydroxy-6-phenyl-4bH-benzo[d]indeno[1,2-b]furan-10(9bH)-one] yielded a melting point of 182 to 183 °C. This compound also registered a CC50 in “in vitro” of 8.08 µg/mL (≈ 24.5 µM).
The compound `CC(C)NC(=O)Nc1cccc2c1C(=O)C1(O)c3ccc(C(C)C)cc3OC21O` (stereo not drawn) [Example 55] returned a melting point of 81 to 85 °C. In the series “in vitro”, this compound showed a CC50 of 7.49 µg/mL (≈ 18.9 µM).
The corresponding values for `O=C1c2ccccc2C2(O)Oc3ccc([N+](=O)[O-])cc3C12O` (stereo not drawn) [Example 14, 4b,9b-Dihydroxy-8-nitro-4bH-benzo[d]indeno[1,2-b]furan-10(9bH)-one] are 206 to 207 °C and more than 50 µg/mL.
In the same order, the values of `CC(=O)OC12Oc3cc(C(C)C)ccc3C1(OC(C)=O)C(=O)c1ccccc12` (stereo not drawn) [Example 11, 7-Isopropyl-10-oxo-9b,10-dihydro-4bH-benzo[d]indeno[1,2-b]furane-4b,9b-diyl diacetate] are 138 to 140 °C and 16.2 µg/mL.
Compound `C=CC(=O)OC12Oc3cc(C(C)C)ccc3C1(O)C(=O)c1ccccc12` (stereo not drawn) [Example 35, 9b-Hydroxy-7-isopropyl-10-oxo-9b,10-dihydro-4bH-benzo[d]indeno[1,2-b]furan-4b-yl acrylate] registered a melting point of 95 to 97 °C. The compound further had a CC50 in the series “in vitro” of 46.7 µg/mL (≈ 133 µM).
As to `O=C1c2ccccc2C2(O)Oc3c(ccc4c3CCCC4)C12O` (stereo not drawn) [Example 31, 6b,11b-Dihydroxy-1,2,3,4,6b,11b-hexahydro-12-oxa-benzo[4,5]pentaleno[2,1-a]naphthalen-7-one], the melting point lay within 252 to 254 °C. The compound further displayed a CC50 in “in vitro” of 8.9 µg/mL (≈ 28.9 µM).
`CC(C)c1ccc2c(c1)OC1(OC(=O)/C=C/c3ccccc3)c3ccccc3C(=O)C21OC(=O)/C=C/c1ccccc1` (stereo not drawn) [Example 34, (2E,2′E)-7-Isopropyl-10-oxo-9b,10-dihydro-4bH-benzo[d]indeno[1,2-b]furan-4b,9b-diyl bis(3-phenylacrylate)] came in with a melting point of 111 to 113 °C. This compound also had a CC50 in “in vitro” of more than 50 µg/mL.
In the same order, the values of `CC(C)OC(=O)Nc1cccc2c1C(=O)C1(O)c3ccc(C(C)C)cc3OC21O` (stereo not drawn) [Example 29, Isopropyl 4b,9b-dihydroxy-7-isopropyl-10-oxo-9b,10-dihydro-4bH-benzo[d]indeno[1,2-b]furan-1-ylcarbamate] are 200 to 202 °C and 7.49 µg/mL (≈ 18.8 µM).
For the compound `COC(=O)c1ccc2c(c1)C1(O)C(=O)c3ccccc3C1(O)O2` (stereo not drawn) [Example 39, Methyl 4b,9b-dihydroxy-10-oxo-9b,10-dihydro-4bH-benzo[d]indeno[1,2-b]furan-8-carboxylate], the melting point fell in the range of 220 to 223 °C. The same compound returned a CC50 in “in vitro” of 45.1 µg/mL (≈ 144 µM).
In turn, `CC(=O)OC12Oc3cc(C(C)C)ccc3C1(OC(C)=O)C(=O)c1c([N+](=O)[O-])cccc12` (stereo not drawn) [Example 53] yielded a melting point of 201 to 203 °C. The compound further showed a CC50 in “in vitro” of 45.6 µg/mL (≈ 107 µM).
Regarding `CC(C)c1ccc2c(c1)OC1(O)c3ccc(N)c(N)c3C(=O)C21O` (stereo not drawn) [Example 62, 1,2-Diamino-4b,9b-dihydroxy-7-isopropyl-4bH-indeno[1,2-b]benzofuran-10(9bH)-one], the melting point is 163 to 166 °C. The CC50 in the series “in vitro” was more than 50 µg/mL.
In turn, `COc1ccc2c(c1)C(=O)C1(O)c3ccc(C(C)C)cc3OC21O` (stereo not drawn) [Example 32, 4b,9b-Dihydroxy-7-isopropyl-2-methoxy-4b,9b-dihydro-5-oxa-indeno[2,1-a]inden-10-one] returned a melting point of 98 to 102 °C. In “in vitro”, this compound returned a CC50 of 8.1 µg/mL (≈ 24.8 µM).
On to `CC(C)c1ccc2c(c1)OC1(O)c3c(N)ccc(N)c3C(=O)C21O` (stereo not drawn) [Example 61, 1,4-diamino-4b,9b-dihydroxy-7-isopropyl-4bH-benzo[d]indeno[1,2-b]furan-10(9bH)-one], for which the melting point lay within 223 to 231 °C. The same compound returned a CC50 in “in vitro” of more than 50 µg/mL.
The compound `Cc1ccc2c(c1)OC1(O)c3ccccc3C(=O)C21O` (stereo not drawn) [Example 1, 4b,9b-Dihydroxy-7-methyl-4bH-benzo[d]indeno[1,2-b]furan-10(9bH)-one] returned a melting point of 145 to 147 °C. This compound also had a CC50 in the series “in vitro” of more than 50 µg/mL.
The compound `CC(C)c1ccc2c(c1)O[C@@]1(O)c3cccc([N+](=O)[O-])c3C(=O)[C@@]21O` [Example 80, 4b,9b-Dihydroxy-7-isopropyl-1-nitro-4bH-benzo[d]indeno[1,2-b]furan-10(9bH)-one] returned a melting point of 186 to 188 °C. In the series “in vitro”, this compound showed a CC50 of 47.5 µg/mL (≈ 139 µM).
On to `Cc1cc2c(cc1C)C1(O)Oc3cc(C(C)C)ccc3C1(O)C2=O` (stereo not drawn) [Example 82, 4b,9b-dihydroxy-7-isopropyl-2,3-dimethyl-4bH-benzo[d]indeno[1,2-b]furan-10(9bH)-one], for which the melting point was 138 to 140 °C. Moreover, the CC50 in the series “in vitro” came to 1.9 µg/mL (≈ 5.86 µM).
The corresponding values for `COC(=O)O[C@@]12Oc3cc(C(C)C)ccc3[C@]1(OC(=O)OC)C(=O)c1c(N)cccc12` [Example 51] are 110 to 120 °C and 17.5 µg/mL (≈ 40.9 µM).
Regarding `CCCc1ccc2c(c1)C1(O)C(=O)c3ccccc3C1(O)O2` (stereo not drawn) [Example 17, 4b,9b-Dihydroxy-8-propyl-4bH-benzo[d]indeno[1,2-b]furan-10(9bH)-one], the melting point was in the range of 126 to 127 °C. The compound further gave a CC50 in “in vitro” of 7.85 µg/mL (≈ 26.5 µM).
`CC(=O)Nc1cccc2c1C(=O)C1(NC(C)=O)c3ccc(C(C)C)cc3OC21O` (stereo not drawn) [Example 57, N,N′-(4b-Hydroxy-7-isopropyl-10-oxo-9b,10-dihydro-4bH-benzo[d]indeno[1,2-b]furane-1,9b-diyl)diacetamide] yielded a melting point of 189 to 191 °C. This compound also had a CC50 in the series “in vitro” of 46.7 µg/mL (≈ 118 µM).
The compound `CC(C)(C)c1ccc2c(c1)C1(O)C(=O)c3ccccc3C1(O)O2` (stereo not drawn) [Example 20, 8-tert-Butyl-4b,9b-dihydroxy-4bH-benzo[d]indeno[1,2-b]furan-10(9bH)-one] yielded a melting point of 187 to 188 °C. The compound further had a CC50 in “in vitro” of 7.93 µg/mL (≈ 25.6 µM).
`CC(=O)Nc1cccc2c1C(=O)C1(O)c3ccc(C(C)C)cc3OC21O` (stereo not drawn) [Example 48, N-(4b,9b-Dihydroxy-7-isopropyl-10-oxo-9b,10-dihydro-4bH-benzo[d]indeno[1,2-b]furan-1-yl)acetamide] returned a melting point of 152 to 154 °C. Further, the CC50 in “in vitro” was 35 µg/mL (≈ 99.1 µM).
Compound `CCC(C)c1ccc2c(c1)C1(O)C(=O)c3ccccc3C1(O)O2` (stereo not drawn) [Example 19, 8-sec-Butyl-4b,9b-dihydroxy-4bH-benzo[d]indeno[1,2-b]furan-10(9bH)-one] gave a melting point of 134 to 136 °C. This compound also yielded a CC50 in the series “in vitro” of 8.34 µg/mL (≈ 26.9 µM).
The compound `CC(=O)O[C@@]12Oc3cc(C(C)C)ccc3[C@]1(OC(C)=O)C(=O)c1c(NS(C)(=O)=O)cccc12` (stereo in doubt) [Example 54, acetic acid 4b-acetoxy-7-isopropyl-1-methanesulfonylamino-10-oxo-4b,10-dihydro-5-oxa-indeno[2,1-a]inden-9b-yl ester] registered a melting point of 96 to 100 °C. The compound further showed a CC50 in “in vitro” of more than 50 µg/mL.
As to `CCN(CC)C(=O)OC12C(=O)c3ccccc3C1(O)Oc1cc(C(C)C)ccc12` (stereo not drawn) [Example 41, 4b-Hydroxy-7-isopropyl-10-oxo-9b,10-dihydro-4bH-benzo[d]indeno[1,2-b]furan-9b-yl diethylcarbamate], the melting point lay in the range of 101 to 104 °C. In the series “in vitro”, this compound came in with a CC50 of 27.1 µg/mL (≈ 68.6 µM).
Consider `CCC(C)(C)c1cc(C(C)(C)CC)c2c(c1)C1(O)C(=O)c3ccccc3C1(O)O2` (stereo not drawn) [Example 28, 6,8-Bis-(1,1-dimethyl-propyl)-4b,9b-dihydroxy-4b,9b-dihydro-5-oxa-indeno[2,1-a]inden-10-one], for which the melting point lay in the range of 195 to 222 °C. The compound further registered a CC50 in the series “in vitro” of 9.2 µg/mL (≈ 23.3 µM).
The compound `CCc1ccc2c(c1)OC1(O)c3ccccc3C(=O)C21O` (stereo not drawn) [Example 9, 7-Ethyl-4b,9b-dihydroxy-4bH-benzo[d]indeno[1,2-b]furan-10(9bH)-one] yielded a melting point of 168 to 169 °C. The CC50 in the series “in vitro” stood at 18 µg/mL (≈ 63.8 µM).
In turn, `CCN(CC)C(=O)OC12Oc3cc(C(C)C)ccc3C1(O)C(=O)c1ccccc12` (stereo not drawn) [Example 40, 9b-Hydroxy-7-isopropyl-10-oxo-9b,10-dihydro-4bH-benzo[d]indeno[1,2-b]furan-4b-yl diethylcarbamate] gave a melting point of 127 to 130 °C. This compound had a CC50 in the series “in vitro” of 44 µg/mL (≈ 111 µM).
As to `CCc1ccc2c(c1)OC1(O)c3ccc(O)cc3C(=O)C21O` (stereo not drawn) [Example 52, 7-Ethyl-2,4b,9b-trihydroxy-4b,9b-dihydro-5-oxa-indeno[2,1-a]inden-10-one], the melting point fell in the range of 208 to 213 °C. In “in vitro”, this compound returned a CC50 of more than 50 µg/mL.

These data come from patent US9890133B2 (priority 2011, dated 2018).
